Reference: the NIST ThermoML archive (doi:10.1016/j.jct.2006.05.008)
Several values for one entry are separate records, joined by “and”; a condition that tells them apart may be missing. Identical values can stand only once.

Assay: molar heat capacity at constant pressure
Conditions: 101.33 kPa

CCC[n+]1ccn(C)c1.[Br-] [1-methyl-3-propylimidazolium bromide]
Conditions	molar heat capacity at constant pressure
146.32 K, Glass, Small (less than 1 g) adiabatic calorimetry	140.69 J/K/mol
146.55 K, Crystal, Vacuum adiabatic calorimetry	133.11 J/K/mol
146.9 K, Crystal, Vacuum adiabatic calorimetry	133.3 J/K/mol
147.92 K, Crystal, Vacuum adiabatic calorimetry	133.83 J/K/mol
148.32 K, Metastable crystal, Small (less than 1 g) adiabatic calorimetry	137.4 J/K/mol
148.96 K, Crystal, Vacuum adiabatic calorimetry	134.32 J/K/mol
149.12 K, Glass, Small (less than 1 g) adiabatic calorimetry	142.33 J/K/mol
149.3 K, Crystal, Vacuum adiabatic calorimetry	134.52 J/K/mol
150.68 K, Crystal, Vacuum adiabatic calorimetry	135.21 J/K/mol
150.83 K, Metastable crystal, Small (less than 1 g) adiabatic calorimetry	138.65 J/K/mol
151.02 K, Crystal, Vacuum adiabatic calorimetry	135.37 J/K/mol
151.92 K, Glass, Small (less than 1 g) adiabatic calorimetry	143.94 J/K/mol
152.06 K, Crystal, Vacuum adiabatic calorimetry	135.89 J/K/mol
153.09 K, Crystal, Vacuum adiabatic calorimetry	136.42 J/K/mol
153.33 K, Metastable crystal, Small (less than 1 g) adiabatic calorimetry	139.92 J/K/mol
153.43 K, Crystal, Vacuum adiabatic calorimetry	136.63 J/K/mol
153.5 K, Glass, Small (less than 1 g) adiabatic calorimetry	144.83 J/K/mol
154.73 K, Glass, Small (less than 1 g) adiabatic calorimetry	145.57 J/K/mol
154.81 K, Crystal, Vacuum adiabatic calorimetry	137.37 J/K/mol
155.15 K, Crystal, Vacuum adiabatic calorimetry	137.48 J/K/mol
155.84 K, Metastable crystal, Small (less than 1 g) adiabatic calorimetry	141.25 J/K/mol
155.92 K, Glass, Small (less than 1 g) adiabatic calorimetry	146.2 J/K/mol
156.19 K, Crystal, Vacuum adiabatic calorimetry	138.07 J/K/mol
157.22 K, Crystal, Vacuum adiabatic calorimetry	138.55 J/K/mol
157.53 K, Glass, Small (less than 1 g) adiabatic calorimetry	147.21 J/K/mol
157.57 K, Crystal, Vacuum adiabatic calorimetry	138.81 J/K/mol
158.35 K, Metastable crystal, Small (less than 1 g) adiabatic calorimetry	142.5 J/K/mol
158.39 K, Glass, Small (less than 1 g) adiabatic calorimetry	147.68 J/K/mol
158.74 K, Metastable crystal, Small (less than 1 g) adiabatic calorimetry	142.49 J/K/mol
158.95 K, Crystal, Vacuum adiabatic calorimetry	139.5 J/K/mol
159.29 K, Crystal, Vacuum adiabatic calorimetry	139.64 J/K/mol
160.32 K, Crystal, Vacuum adiabatic calorimetry	140.24 J/K/mol
160.34 K, Glass, Small (less than 1 g) adiabatic calorimetry	148.83 J/K/mol
160.85 K, Glass, Small (less than 1 g) adiabatic calorimetry	149.02 J/K/mol
160.86 K, Metastable crystal, Small (less than 1 g) adiabatic calorimetry	143.76 J/K/mol
161.31 K, Metastable crystal, Small (less than 1 g) adiabatic calorimetry	143.83 J/K/mol
161.35 K, Crystal, Vacuum adiabatic calorimetry	140.75 J/K/mol
161.7 K, Crystal, Vacuum adiabatic calorimetry	141.04 J/K/mol
163.07 K, Crystal, Vacuum adiabatic calorimetry	141.95 J/K/mol
163.14 K, Glass, Small (less than 1 g) adiabatic calorimetry	150.42 J/K/mol
163.31 K, Glass, Small (less than 1 g) adiabatic calorimetry	150.41 J/K/mol
163.36 K, Metastable crystal, Small (less than 1 g) adiabatic calorimetry	145.06 J/K/mol
163.42 K, Crystal, Vacuum adiabatic calorimetry	142.16 J/K/mol
163.82 K, Metastable crystal, Small (less than 1 g) adiabatic calorimetry	145.08 J/K/mol
164.45 K, Crystal, Vacuum adiabatic calorimetry	143.11 J/K/mol
165.48 K, Crystal, Vacuum adiabatic calorimetry	144.27 J/K/mol
165.77 K, Glass, Small (less than 1 g) adiabatic calorimetry	151.85 J/K/mol
165.82 K, Crystal, Vacuum adiabatic calorimetry	145.11 J/K/mol
165.87 K, Metastable crystal, Small (less than 1 g) adiabatic calorimetry	146.32 J/K/mol
165.96 K, Glass, Small (less than 1 g) adiabatic calorimetry	152.04 J/K/mol
166.33 K, Metastable crystal, Small (less than 1 g) adiabatic calorimetry	146.42 J/K/mol
167.19 K, Crystal, Vacuum adiabatic calorimetry	146.62 J/K/mol
167.53 K, Crystal, Vacuum adiabatic calorimetry	147.09 J/K/mol
168.23 K, Glass, Small (less than 1 g) adiabatic calorimetry	153.27 J/K/mol
168.38 K, Metastable crystal, Small (less than 1 g) adiabatic calorimetry	147.66 J/K/mol
168.56 K, Crystal, Vacuum adiabatic calorimetry	147.58 J/K/mol
168.77 K, Glass, Small (less than 1 g) adiabatic calorimetry	153.64 J/K/mol
168.85 K, Metastable crystal, Small (less than 1 g) adiabatic calorimetry	147.67 J/K/mol
169.59 K, Crystal, Vacuum adiabatic calorimetry	148.31 J/K/mol
169.93 K, Crystal, Vacuum adiabatic calorimetry	148.36 J/K/mol
170.69 K, Glass, Small (less than 1 g) adiabatic calorimetry	154.76 J/K/mol
170.88 K, Metastable crystal, Small (less than 1 g) adiabatic calorimetry	149.09 J/K/mol
171.3 K, Crystal, Vacuum adiabatic calorimetry	149.09 J/K/mol
171.36 K, Metastable crystal, Small (less than 1 g) adiabatic calorimetry	149.04 J/K/mol
171.57 K, Glass, Small (less than 1 g) adiabatic calorimetry	155.3 J/K/mol
171.66 K, Crystal, Vacuum adiabatic calorimetry	149.38 J/K/mol
172.67 K, Crystal, Vacuum adiabatic calorimetry	149.83 J/K/mol
173.15 K, Glass, Small (less than 1 g) adiabatic calorimetry	156.22 J/K/mol
173.73 K, Crystal, Vacuum adiabatic calorimetry	150.42 J/K/mol
173.86 K, Metastable crystal, Small (less than 1 g) adiabatic calorimetry	151.16 J/K/mol
174.05 K, Crystal, Vacuum adiabatic calorimetry	150.49 J/K/mol
174.37 K, Glass, Small (less than 1 g) adiabatic calorimetry	156.97 J/K/mol
175.42 K, Crystal, Vacuum adiabatic calorimetry	151.1 J/K/mol
175.61 K, Glass, Small (less than 1 g) adiabatic calorimetry	157.68 J/K/mol
175.8 K, Crystal, Vacuum adiabatic calorimetry	151.34 J/K/mol
176.31 K, Metastable crystal, Small (less than 1 g) adiabatic calorimetry	156.29 J/K/mol
176.79 K, Crystal, Vacuum adiabatic calorimetry	151.84 J/K/mol
177.16 K, Glass, Small (less than 1 g) adiabatic calorimetry	158.66 J/K/mol
177.87 K, Crystal, Vacuum adiabatic calorimetry	152.35 J/K/mol
178.06 K, Glass, Small (less than 1 g) adiabatic calorimetry	159.2 J/K/mol
178.16 K, Crystal, Vacuum adiabatic calorimetry	152.6 J/K/mol
178.77 K, Metastable crystal, Small (less than 1 g) adiabatic calorimetry	157.34 J/K/mol
179.54 K, Crystal, Vacuum adiabatic calorimetry	153.2 J/K/mol
179.94 K, Crystal, Vacuum adiabatic calorimetry	153.35 J/K/mol
179.96 K, Glass, Small (less than 1 g) adiabatic calorimetry	160.43 J/K/mol
180.51 K, Glass, Small (less than 1 g) adiabatic calorimetry	160.72 J/K/mol
180.91 K, Crystal, Vacuum adiabatic calorimetry	153.97 J/K/mol
181.24 K, Metastable crystal, Small (less than 1 g) adiabatic calorimetry	158.54 J/K/mol
182.01 K, Crystal, Vacuum adiabatic calorimetry	154.36 J/K/mol
182.28 K, Crystal, Vacuum adiabatic calorimetry	154.57 J/K/mol
182.76 K, Glass, Small (less than 1 g) adiabatic calorimetry	162.21 J/K/mol
182.96 K, Glass, Small (less than 1 g) adiabatic calorimetry	162.2 J/K/mol
183.71 K, Metastable crystal, Small (less than 1 g) adiabatic calorimetry	159.86 J/K/mol
184.08 K, Crystal, Vacuum adiabatic calorimetry	155.44 J/K/mol
184.32 K, Crystal, Vacuum adiabatic calorimetry	155.34 J/K/mol
185.31 K, Crystal, Vacuum adiabatic calorimetry	156.02 J/K/mol
185.4 K, Glass, Small (less than 1 g) adiabatic calorimetry	163.81 J/K/mol
185.55 K, Glass, Small (less than 1 g) adiabatic calorimetry	163.97 J/K/mol
186.15 K, Crystal, Vacuum adiabatic calorimetry	156.46 J/K/mol
186.18 K, Metastable crystal, Small (less than 1 g) adiabatic calorimetry	161.18 J/K/mol
186.86 K, Crystal, Vacuum adiabatic calorimetry	156.54 J/K/mol
187 K, Crystal, Vacuum adiabatic calorimetry	156.84 J/K/mol
187.85 K, Glass, Small (less than 1 g) adiabatic calorimetry	165.5 J/K/mol
188.22 K, Crystal, Vacuum adiabatic calorimetry	157.39 J/K/mol
188.33 K, Glass, Small (less than 1 g) adiabatic calorimetry	165.89 J/K/mol
188.37 K, Crystal, Vacuum adiabatic calorimetry	157.44 J/K/mol
188.65 K, Metastable crystal, Small (less than 1 g) adiabatic calorimetry	162.48 J/K/mol
189.74 K, Crystal, Vacuum adiabatic calorimetry	158.15 J/K/mol and 158.27 J/K/mol
190.29 K, Crystal, Vacuum adiabatic calorimetry	158.43 J/K/mol
190.29 K, Glass, Small (less than 1 g) adiabatic calorimetry	167.25 J/K/mol
190.58 K, Crystal, Vacuum adiabatic calorimetry	158.53 J/K/mol
191.11 K, Crystal, Vacuum adiabatic calorimetry	158.93 J/K/mol
191.12 K, Glass, Small (less than 1 g) adiabatic calorimetry	167.98 J/K/mol
191.12 K, Metastable crystal, Small (less than 1 g) adiabatic calorimetry	163.72 J/K/mol
192.28 K, Crystal, Vacuum adiabatic calorimetry	159.62 J/K/mol
192.36 K, Crystal, Vacuum adiabatic calorimetry	159.59 J/K/mol
192.48 K, Crystal, Vacuum adiabatic calorimetry	159.63 J/K/mol
192.74 K, Glass, Small (less than 1 g) adiabatic calorimetry	168.95 J/K/mol
193.11 K, Crystal, Vacuum adiabatic calorimetry	160.08 J/K/mol
193.58 K, Metastable crystal, Small (less than 1 g) adiabatic calorimetry	165.05 J/K/mol
193.85 K, Crystal, Vacuum adiabatic calorimetry	160.55 J/K/mol
193.9 K, Glass, Small (less than 1 g) adiabatic calorimetry	169.91 J/K/mol
194.35 K, Crystal, Vacuum adiabatic calorimetry	160.92 J/K/mol
195.18 K, Crystal, Vacuum adiabatic calorimetry	161.48 J/K/mol
195.19 K, Glass, Small (less than 1 g) adiabatic calorimetry	171.15 J/K/mol
195.22 K, Crystal, Vacuum adiabatic calorimetry	161.53 J/K/mol
196.05 K, Metastable crystal, Small (less than 1 g) adiabatic calorimetry	166.26 J/K/mol
196.59 K, Crystal, Vacuum adiabatic calorimetry	162.52 J/K/mol
196.68 K, Glass, Small (less than 1 g) adiabatic calorimetry	172.49 J/K/mol
197.24 K, Crystal, Vacuum adiabatic calorimetry	163.14 J/K/mol
197.62 K, Glass, Small (less than 1 g) adiabatic calorimetry	173.39 J/K/mol
197.95 K, Crystal, Vacuum adiabatic calorimetry	163.6 J/K/mol
198.51 K, Crystal, Vacuum adiabatic calorimetry	164.2 J/K/mol
198.51 K, Metastable crystal, Small (less than 1 g) adiabatic calorimetry	167.53 J/K/mol
199.3 K, Crystal, Vacuum adiabatic calorimetry	164.84 J/K/mol
